Results as given in ChEMBL document CHEMBL3507680, “University of Dundee, Gates Library screen for HepG2 cell viability”.

Experiment: Human HepG2 cell viability assay in 384 well format
Format: toxicity, cell-based
Set-up: dose 125 nL, time 70.5 hour; concentration not given beside the values
Conditions: HepG2 cells, read-out: Inhibition

| SMILES | cytotoxicity at 70.5 h [%] |
| --- | --- |
| O=C(c1ccnc(CC2COc3ccccc3C2)c1)N1CCCC1 (stereo not drawn) | -23.5 |
| CCS(=O)(=O)N1CCCC(c2nc3ccccc3n2C(C)C)C1 (stereo not drawn) | -3.94 |
| O=C(c1cn(Cc2ccc(Cl)cc2)nn1)N1CCCO1 | -10.9 |
| Cc1cc(NCCc2nnc(N)s2)nc(-c2cccnc2)n1 | -6 |
| Cc1cccnc1C(=O)N1CCC(Cc2cnc3[nH]ccc3c2)CC1 | 21.2 |
| CCOc1ccc(C(=O)Nc2c(C)nc3scc(C)n3c2=O)cc1 | -0.312 |
| CCNc1cc2c(nn1)CCN(C(=O)c1cc3cc(C)ccc3o1)C2 | 5.36 |
| Cc1nc(C(=O)N2CCCC2c2c(C)nn(C)c2Cl)ccc1C#N (stereo not drawn) | -4.22 |
| NC(=O)c1nc(-c2ccc(Cl)cc2Cl)oc1N | -3.66 |
| COc1ccc(C)cc1CN1CCN(Cc2nccn2C)C(C)C1 (stereo not drawn) | 7.41 |
| COc1ccc(Cl)cc1CC(=O)N1CCN(CCO)CC1 | 12.5 |
| COCC(=O)N1CCN(Cn2nc(C)c(Br)c2C)CC1 | -2.69 |
| COc1ccc(C2CNCCN2C(=O)c2cccc3cccnc23)cc1 (stereo not drawn) | 12.4 |
| Cc1oc(-c2ccsc2)nc1CN1CCCC(c2ccnn2C)C1 (stereo not drawn) | -23.6 |
| COCC1CN(S(=O)(=O)c2ccc(C)cc2)Cc2c1cnn2C (stereo not drawn) | 7.58 |
| c1coc(CN2C[C@@H]3CCCO[C@@H]3[C@H](N3CCCC3)C2)c1 | -8.85 |
| CN(Cc1ccc([S+](C)[O-])cc1)c1ccc(Br)cn1 (stereo not drawn) | -0.515 |
| Cc1ccc(S(=O)(=O)NCCNC(=O)c2ccoc2)cc1F | 11.8 |
| O=C(Nc1cnn(Cc2ccc(Cl)cc2)c1)N[C@@H]1C=C[C@H](CO)C1 | -7.72 |
| Cc1noc(C)c1S(=O)(=O)N(CC(N)=O)CC(C)C | -20.2 |
| O=C(Nc1nc2c(s1)CN(S(=O)(=O)C1CC1)CC2)c1ccc(Cl)s1 | -11.1 |

| SMILES | cytotoxicity at 70.5 h [%] |
| --- | --- |
| CCN1CC(CN(C)c2cc(C)nc(N)n2)Oc2ccccc21 (stereo not drawn) | 17.6 |
| CC(C)C(C)NC(=O)Nc1ccc(CS(=O)(=O)C(C)C)cc1 (stereo not drawn) | -12.6 |
| COc1ccc(NC(=O)Cn2nc(C)c(C)cc2=O)cc1Cl | 0.971 |
| Cc1ccc(C(=O)N2CCC(c3n[nH]c(C4CC4)n3)CC2)cc1F | -7.97 |
| CCCOc1cc(CNC(=O)Nc2ccc(C)cc2)ccn1 | -2.77 |
| COC(=O)c1ccc(C)c(N2CCNC2=O)c1 | -2.21 |
| Cc1ccc(OCC(=O)Nc2cc(C(=O)O)cc(S(C)(=O)=O)c2)cc1C | 0.676 |
| Cc1ccc(-c2nnc(CN3CCCC(O)(CO)CC3)o2)n1C (stereo not drawn) | 14.8 |
| COc1ccccc1C(O)CNCc1c(C(C)C)nn(C)c1N(C)C (stereo not drawn) | 13.7 |
| CN(C)c1ncccc1CNC(=O)NCc1ccco1 | 0.432 |
| c1ccc(CCN2CCCC(Cn3ccnc3)C2)cc1 (stereo not drawn) | -10.4 |
| CCCn1cc(C(=O)n2nc(C)cc2C)c(S(=O)(=O)N2CCSCC2)n1 | -7.23 |
| CCC(CC)NC(=O)NCc1ccnc(-n2ccnc2C)c1 | -2.5 |
| COc1ccc(-c2nccnc2C2CCN(C(C)=O)CC2)cc1 | 19.6 |
| COc1cc(Cl)c(C)cc1-n1nnc(C(=O)O)c1-c1ccncc1 | 28.1 |
| O=C(c1ccnc(-n2cnnc2)c1)N1CCCC2(CCOC2)C1 (stereo not drawn) | -2.19 |
| O=C(c1cc(Cn2ccc3ccccc32)[nH]n1)N1CCC[C@H]1CO | -0.0597 |
| CC(C)Nc1nc2c(s1)C(=O)CN(C)C2 | 4.07 |
| CN(C)C(=O)CN1CCN(c2cc(N3CCCC3CO)ncn2)CC1 (stereo not drawn) | -4.56 |
| C=Cn1cc(CN2CCc3nc(-c4cccnc4)nc(O)c3C2)c(C)n1 | -3.49 |
| O=C(Nc1ccnc2ccnn12)c1ccc(N2CCC(O)CC2)cc1 | 6.12 |

| SMILES | cytotoxicity at 70.5 h [%] |
| --- | --- |
| O=C1CC2(CCSC2)C(=O)N1Cc1coc(-c2ccccc2)n1 (stereo not drawn) | 2.52 |
| CS(=O)(=O)NC1CC2(CCN(CCF)CC2)Oc2ccccc21 (stereo not drawn) | -4.96 |
| COc1ccc(COCC(O)CSc2ccc(NC(C)=O)cc2)cc1 (stereo not drawn) | -10.5 |
| CCN(Cc1ccncc1)C(=O)C1COc2c(cccc2OC)C1 (stereo not drawn) | 6.05 |
| O=C(Nc1ccc(=O)n(Cc2ccccc2Cl)c1)C1CC1 | -23.5 |
| COc1ccccc1CNC(=O)CN(C)C(C)c1ccncn1 (stereo not drawn) | -18.5 |
| CC(C)N(C)Cc1nnc2n1CCCN(S(=O)(=O)C1CC1)C2 | -5.26 |
| c1cncc(-c2ncnc3c2CCN(Cc2ccsc2)CC3)c1 | 19.2 |
| O=C(Cn1ccc2sccc2c1=O)NCCCc1ccccc1 | -9.43 |
| COc1ccccc1CN(CC1CCCO1)C(=O)c1cc(C)n[nH]1 (stereo not drawn) | -14.4 |
| O=C(C1CCOC1)N1CCC2(CC1)CN(Cc1nccs1)CCO2 (stereo not drawn) | -2.99 |
| CCn1nc(C)cc1C(=O)NCc1nc(C)cc(C)n1 | -13.2 |
| Cc1[nH]ncc1C(=O)N1CCOC(c2cccs2)C1 (stereo not drawn) | 25.7 |
| CCN(C)c1ncnc2c1CCN(C(=O)NCc1cccnc1)CC2 | 0.595 |
| COCCN1Cc2nccn2CC(COCc2csc(C)n2)C1 (stereo not drawn) | -1.7 |
| CC(C)CN1Cc2cccc(NC(=O)Cc3ccon3)c2C1 | -4.05 |
| CNC(=O)N1CCC2(CC1)CN(C)c1ccc(F)cc12 | 2.16 |
| CCOC(=O)Cn1nnnc1-c1ccccc1 | -0.715 |
| COc1ccc(C2=CCN(C(=O)C3CCC3)CC2)cc1 | -1.58 |
| Cc1ccc(F)c(N2CCCC(Nc3nccn4cnnc34)C2=O)c1 (stereo not drawn) | -11.1 |
| Cn1cc(-c2cnc(N3CCOCC3)nc2)cc1C(=O)O | -2.63 |

| SMILES | cytotoxicity at 70.5 h [%] |
| --- | --- |
| c1cnc(N2CCOC3(COCCN(Cc4cc[nH]n4)C3)C2)nc1 (stereo not drawn) | -8.27 |
| Cc1noc([C@@H]2C[C@H]3CN(CC4CCOCC4)C[C@H]3O2)n1 | 14.1 |
| Cc1nc(-c2ccc(NCCc3ccc(O)cc3)nc2)[nH]c(=O)c1C | 3.42 |
| CN1CCC2(CC1)CN(C(=O)c1cccnc1)c1ccc(Cl)cc12 | -10.6 |
| CCc1nc(NS(=O)(=O)c2cc(C)ccc2Br)no1 | 1.48 |
| CC(=O)N1CCN(c2ccnc(C)n2)CC(COc2ccccc2)C1 (stereo not drawn) | -3.78 |
| Cc1cc(NC(C)C(=O)NCC(F)(F)F)nc(-c2ccncc2)n1 (stereo not drawn) | -16.5 |
| O=c1c(CN2CCOCC2)coc2ccc(Cl)cc12 | -8.39 |
| CCCn1nc(C)c2c(C(F)F)cc(=O)n(CC(=O)O)c21 | -8.97 |
| COc1ccc(NC(=O)Nc2cnc(N3CCN(C)CC3)nc2)cc1Cl | -0.129 |
| CCCn1ccc2cc(NC(=O)CC3CCCO3)ccc21 (stereo not drawn) | -5.13 |
| CC(=O)N1CCC(NC[C@H]2Cn3c(-c4ccccc4)cnc3CO2)CC1 | -5.76 |
| COCCC1(C(=O)O)CCCN(Cc2cc3c(cc2Cl)OCO3)C1 (stereo not drawn) | -5.22 |
| O=C1CO[C@H](c2ccc(NS(=O)(=O)c3ccccc3)cc2)[C@@H](CO)N1 | 11.6 |
| CC(=O)N1N=C(c2cccs2)OC1C(=O)NCc1ccc(C)o1 (stereo not drawn) | -1.09 |
| c1cnc2nc(C3CCNCC3)[nH]c2c1 | -11.9 |
| COc1cc(OC)cc(C2SCC(=O)Nc3ccsc32)c1 (stereo not drawn) | -4.19 |
| Cn1cnc(S(=O)(=O)N2CCN(Cc3ccco3)CC2)c1Cl | 2.09 |
| CCS(=O)(=O)N1CCCC2(CCCN2C(=O)c2cscn2)C1 (stereo not drawn) | -0.54 |
| CCCOc1ccccc1CCCNc1ncnc2oc(C)nc12 | -7.16 |
